Reference: US20130130376A1, “SCREENING METHODS, COMPOSITIONS IDENTIFIED THEREBY, TOOLS USEFUL FOR THE IDENTIFICATION THEREOF, AND CELL POPULATIONS PRODUCED THEREBY” (priority 2010, published 2013)

System: Jurkat cells
Assay: ECMP attachment screen for Jurkat cell attachment on hydrogel array spots
Assay type: cell-based, human
Details: printed alone in a 400 μm spot on hydrogel coated slide; nuclear fluorescence (DraQ) after 3 hours of attachment
Description: In certain embodiments, stock solutions of extracellular matrix (ECM) components (0.01 mg/ml-1 mg/ml), such as Collagen I, III, IV, V, VI, Fibronectin, Laminin, and the like, as well as Hyaluronic Acid, gelatin and BSA (negative control) are mixed 1:1 with 200 mM acetate, 10 mM EDTA, 40% (v/v) glycerol, and 0.5% (v/v) Triton X-100 in MQH2O, at pH 4.9. Individual and combinations of different components are mixed in 384-well plates. This ECM based array is used to screen for the optimal cell attachment conditions.
The human acute T cell leukemia Jurkat cell line (ATTC Number TIB-153) was purchased from American Type Culture Collection (ATCC). Cells were cultured in RPMI-1640, supplemented with 10% FBS, 2 mmol/liter glutamin and antibiotics (100 IU/ml of penicillin G) and incubated at 37° C. in a humidified atmosphere of 5% CO2. […]
FIG. 3, for example, summarizes the attachment components that were identified to support Jurkat cell attachment on invention arrays. Briefly, Jurkat nuclear intensity was monitored by fluorescence using DraQ staining after 3 hours of attachment. The slides were read using a […] and fluorescence was quantified using the Genepix 2.0 software. […]

## Fibronectin
  Jurkat cell attachment: consistently supported attachment of Jurkat cells
